Data as given in the NIST ThermoML archive (doi:10.1016/j.tca.2017.04.014).
± gives the expanded uncertainty stated by the source.

Test: xn = mol fraction of the nth substance listed
Settings: 298.15 K, 101.3 kPa, Crystal

[O-2].[O-2].[Th+4] [thorium dioxide] + [O-2].[O-2].[U+4]
mass density [kg/m3]
Settings | x1 = 0.3 | x1 = 0.5 | x1 = 0.6 | x1 = 0.7 | x1 = 0.8 | x1 = 0.9 | x1 = 1
From pellet mass and volume | 8570 ± 1900 | 8600 ± 1700 | 8410 ± 1700 | 9020 ± 1800 | 9240 ± 1800 | 8800 ± 1800 | 9390 ± 1900
X-ray diffraction | 10810 ± 210 | 10810 ± 140 | 10640 ± 130 | 10480 ± 100 | 10350 ± 70 | 10170 ± 50 | 10000 ± 30
buoyancy | 8960 ± 1900 | 8780 ± 1800 | 8690 ± 1800 | 9290 ± 1900 | 9590 ± 1900 | 9210 ± 1800 | 9430 ± 1900
